Reference: patent US5096924A, “Anticancer antibiotic MI43-37F11 substance” (501 Azidan Hojin Biseibutsu Kagaku Kenkyu Kai, priority 1989, dated 1992)

Experiments:
peritoneal macrophages [1] = test: Activation of peritoneal macrophages (production of O2-); type: in vivo, CDF1 mice; details: for Rate (%) of increase in production of O2^-: one day before harvest, control 100
Procedure: (3) Experiments for estimation of the activity of MI43-37F11 substance to activate peritoneal macrophages were conducted by the following procedure. Thus, one day before the harvest of the peritoneal macrophages, the antibiotic MI43-37F11 substance was intraperitoneally administered to CDF1 mice (8-week old, female, 3 mice in each group) at a dosage of 50 mg/kg, 12.5 mg/kg or 3.125 mg/kg. One day after the administration, the macrophages were harvested from the peritoneal cavity of the treated mice and placed into a culture medium present in a plastic dish (Falcone, No. 3002, […], a product of Decton Dikinson & Company) at the cell concentration of 1×10^6 cells/m(, followed by incubation of the macrophages. The incubated medium containing the macrophages was then added with 100 ng/ml of phorbol myristate acetate to elicite the macrophages for their production of O2 -. The amount of O2 - was determined by reductive reaction with cytochrome C. The control group of mice (untreated) received only intraperitoneal injection of physiological saline in place of the administration of MI43-37F11 substance before the harvest of the peritoneal macrophages was done. Assumed that the amount of O2 - as produced and liberated by the peritoneal macrophages which were harvested from the mice of the control group was amounting to 100, the rate of increase in the amount of O2 - as produced by the peritoneal macrophages of the mice of the treated group was evaluated. In other words, the rate (%) of increase in the production of O2 - by the peritoneal macrophages of the mice of the treated group was calculated according to the following equation; [formula] where T means the amount of O2^- produced by the peritoneal macrophages of the mice of the treated group and C means the amount of O2^- produced by the peritoneal macrophages of the control group (untreated).

interleukin-1 = test: Enhancement of the production of interleukin-1 in vivo (uptake of 3H-TdR by D10.G4.1 cells); set-up: species or system CDF1 mice
Procedure: (5) Experiments for estimation of the activity of the antibiotic MI43-37F11 substance to enhance the production of interleukin-1 in vivo was conducted by the following procedure. Thus, MI43-37F11 substance was orally administered to CDF1 mice (female, 6-week old) B at a dosage of 25 mg/kg. One day, 3 days, 5 days and […] the administration, peritoneal exudate cells (PEC) and spleen cells were respectively harvested from the mice of the treated group. The peritoneal exudate cells and spleen cells as harvested were independently divided into two classes, namely the class of the adherent cell which was adherent in its nature to the wall of a plastic dish and the class of the non-adherent cell. The whole peritoneal exudate cells (PEC), the adherent cells of PEC and the adherent cells of the spleen cell were separately suspended into aliquots of a culture medium to give a cell concentrations of 1×10^6 cells/well, 2×10^6 cells/well and 2.5×10^6 cells/well, respectively. After the incubation for 24 hours, the supernatants were collected by filtration of the incubated culture media and then assayed for their activity of interleukin-1 (IL-1) according to the method of Jonathan K. et al (see "Lymphokine Research" 3 (4), 175-182, (1984)). Namely, 100 μl of each supernatant obtained as above and Concanavalin A (to a final concentration of 2.5 μg/ml) were added to 100 μl of a cell suspension containing 1 x 10^5 cells/m(of D10.G4.1. cells which will proliferate in the presence of Concanavalin A plus interleukin-1 when the latter compounds are given. The resulting mixture was then incubated for 48 hours and then added with ^3 H-thymidine (^3 H-TdR), followed by further incubation for 16 hours. After this, the rate of uptake of ^3 H-TdR by the D10.G4.1. cells was determined in term of the radio-activity unit of c.p.m. The rate of uptake of ^3 H-TdR in the control group of mice (untreated) was also determined in the same manner as above.

peritoneal macrophages [2] = test: Effect on phagocytosis of the peritoneal macrophages; type: in vivo, CDF1 mice; details: for Rate (%) of Increase in phagocytic action of peritoneal macrophages: 3 days and one day before harvest, control 100
Procedure: (4) Experiments for estimation of the effect of the antibiotic MI43-37F11 substance on phagocytosis of the peritoneal macrophages were conducted by the following procedure. Thus, 3 days and one day before the harvest of the peritoneal macrophages, MI43-37F11 substance was intraperitoneally administered to CDF1 mice (female, 8-weeks old, 3 mice) at a dosage of 50 mg/kg, 5 mg/kg or 0.5 mg/kg. One day after the administration of MI43-37F11 substance, the peritoneal macrophages were harvested from the peritoneal cavity of the mice of the treated group of mice and then inoculated into a culture medium present in a plastic dish (Falcone) at the cell density of 5×10^5 cells/m(, followed by incubation of the macrophages. The incubated medium containing the macrophages was then added with 7.5×10^6 cells/ml of heat-treated yeast cells, followed by further incubation for a time. The macrophages were then fixed by addition of methanol and stained by Giemsa staining method. The number of the yeast cells which received the phagocytosis by 400 macrophages was counted. The control group of mice (untreated) received only intraperitoneal injection of physiological saline in place of the administration of MI43-37F11 substance, before the harvest of the peritoneal macrophages was done. Assumed that the number of the yeast cells which had received the phagocytosis by 400 macrophages as harvested from the mice of the control group was amounting to 100, the rate of increase in the phagocytic action of the peritoneal macrophages as harvested from the treated group of mice was evaluated. In other words, the rate (%) of increase in the phagocytic action of the peritoneal macrophages of the mice of the treated group was calculated according to the following equation: [formula] where T means the mumber of yeast cells having received the phagocytosis by 400 macrophages which were harvested from the treated group of mice, and C means the number of yeast cells having received the phagocytosis by 400 macrophages which were harvested from the control group of mice (untreated).

COc1cc(O)c2c(=O)oc(CO)cc2c1 [MI43-37F11 substance]
Rate (%) of increase in production of O2^- (peritoneal macrophages [1]; 3.125 mg/kg i.p.): 105% | Rate (%) of increase in production of O2^- (peritoneal macrophages [1]; 12.5 mg/kg i.p.): 127% | Rate (%) of increase in production of O2^- (peritoneal macrophages [1]; 50 mg/kg i.p.): 255% | increased production of O2- by peritoneal macrophages (peritoneal macrophages [1]; summary in words): effective | Uptake of 3H-TdR, T/C % (interleukin-1; adherent cell in PEC, 1 day after 25 mg/kg oral): 165.8% | Uptake of 3H-TdR, c.p.m. ± S.D. (interleukin-1; adherent cell in PEC, 1 day after 25 mg/kg oral, control 10561 ± 1241, **): 17510 ± 810 c.p.m. | Uptake of 3H-TdR, T/C % (interleukin-1; adherent cell in PEC, 3 days after 25 mg/kg oral): 131.7% | Uptake of 3H-TdR, c.p.m. ± S.D. (interleukin-1; adherent cell in PEC, 3 days after 25 mg/kg oral, control 10561 ± 1241, **): 13912 ± 1367 c.p.m. | Uptake of 3H-TdR, T/C % (interleukin-1; adherent cell in PEC, 5 days after 25 mg/kg oral): 253.4% | Uptake of 3H-TdR, c.p.m. ± S.D. (interleukin-1; adherent cell in PEC, 5 days after 25 mg/kg oral, control 10561 ± 1241, ***): 26759 ± 3601 c.p.m. | Uptake of 3H-TdR, T/C % (interleukin-1; adherent cell in PEC, 7 days after 25 mg/kg oral): 167.0% | Uptake of 3H-TdR, c.p.m. ± S.D. (interleukin-1; adherent cell in PEC, 7 days after 25 mg/kg oral, control 10561 ± 1241, *): 17639 ± 2699 c.p.m. | Uptake of 3H-TdR, T/C % (interleukin-1; adherent cell in spleen cells, 1 day after 25 mg/kg oral): 83.3% | Uptake of 3H-TdR, c.p.m. ± S.D. (interleukin-1; adherent cell in spleen cells, 1 day after 25 mg/kg oral, control 2091 ± 481): 1741 ± 352 c.p.m. | Uptake of 3H-TdR, T/C % (interleukin-1; adherent cell in spleen cells, 3 days after 25 mg/kg oral): 232.8% | Uptake of 3H-TdR, c.p.m. ± S.D. (interleukin-1; adherent cell in spleen cells, 3 days after 25 mg/kg oral, control 2091 ± 481, **): 4868 ± 497 c.p.m. | Uptake of 3H-TdR, T/C % (interleukin-1; adherent cell in spleen cells, 5 days after 25 mg/kg oral): 102.3% | Uptake of 3H-TdR, c.p.m. ± S.D. (interleukin-1; adherent cell in spleen cells, 5 days after 25 mg/kg oral, control 2091 ± 481): 2140 ± 121 c.p.m. | Uptake of 3H-TdR, T/C % (interleukin-1; adherent cell in spleen cells, 7 days after 25 mg/kg oral): 114.1% | Uptake of 3H-TdR, c.p.m. ± S.D. (interleukin-1; adherent cell in spleen cells, 7 days after 25 mg/kg oral, control 2091 ± 481): 2385 ± 134 c.p.m. | enhance the in vivo production of interleukin-1 (interleukin-1; summary in words): effective | Uptake of 3H-TdR, T/C % (interleukin-1; whole PEC, 1 day after 25 mg/kg oral): 61.3% | Uptake of 3H-TdR, c.p.m. ± S.D. (interleukin-1; whole PEC, 1 day after 25 mg/kg oral, control 7166 ± 752, **): 4393 ± 397 c.p.m. | Uptake of 3H-TdR, T/C % (interleukin-1; whole PEC, 3 days after 25 mg/kg oral): 83.6% | Uptake of 3H-TdR, c.p.m. ± S.D. (interleukin-1; whole PEC, 3 days after 25 mg/kg oral, control 7166 ± 752): 5988 ± 602 c.p.m. | Uptake of 3H-TdR, T/C % (interleukin-1; whole PEC, 5 days after 25 mg/kg oral): 391.7% | Uptake of 3H-TdR, c.p.m. ± S.D. (interleukin-1; whole PEC, 5 days after 25 mg/kg oral, control 7166 ± 752, ***): 28072 ± 1174 c.p.m. | Uptake of 3H-TdR, T/C % (interleukin-1; whole PEC, 7 days after 25 mg/kg oral): 54.5% | Rate (%) of Increase in phagocytic action of peritoneal macrophages (peritoneal macrophages [2]; 0.5 mg/kg i.p.): 102% | Rate (%) of Increase in phagocytic action of peritoneal macrophages (peritoneal macrophages [2]; 5 mg/kg i.p.): 80% | Rate (%) of Increase in phagocytic action of peritoneal macrophages (peritoneal macrophages [2]; 50 mg/kg i.p.): 144% | enhance the phagocytic action of the macrophages (peritoneal macrophages [2]; summary in words): effective
